Experimental data from ChEMBL document CHEMBL4619824, “Identification of Novel Rho-Kinase-II Inhibitors with Vasodilatory Activity” (ACS Med Chem Lett, 2020).

These compounds were tested against Rho-associated protein kinase 2 (Homo sapiens, UniProt O75116) (assay: Inhibition of ROCK2 (unknown origin) assessed as phosphorylation of MYPT1 using Tetramethylbenzidine as substrate in presence of ATP).
Sequence of Rho-associated protein kinase 2 (O75116 whole entry): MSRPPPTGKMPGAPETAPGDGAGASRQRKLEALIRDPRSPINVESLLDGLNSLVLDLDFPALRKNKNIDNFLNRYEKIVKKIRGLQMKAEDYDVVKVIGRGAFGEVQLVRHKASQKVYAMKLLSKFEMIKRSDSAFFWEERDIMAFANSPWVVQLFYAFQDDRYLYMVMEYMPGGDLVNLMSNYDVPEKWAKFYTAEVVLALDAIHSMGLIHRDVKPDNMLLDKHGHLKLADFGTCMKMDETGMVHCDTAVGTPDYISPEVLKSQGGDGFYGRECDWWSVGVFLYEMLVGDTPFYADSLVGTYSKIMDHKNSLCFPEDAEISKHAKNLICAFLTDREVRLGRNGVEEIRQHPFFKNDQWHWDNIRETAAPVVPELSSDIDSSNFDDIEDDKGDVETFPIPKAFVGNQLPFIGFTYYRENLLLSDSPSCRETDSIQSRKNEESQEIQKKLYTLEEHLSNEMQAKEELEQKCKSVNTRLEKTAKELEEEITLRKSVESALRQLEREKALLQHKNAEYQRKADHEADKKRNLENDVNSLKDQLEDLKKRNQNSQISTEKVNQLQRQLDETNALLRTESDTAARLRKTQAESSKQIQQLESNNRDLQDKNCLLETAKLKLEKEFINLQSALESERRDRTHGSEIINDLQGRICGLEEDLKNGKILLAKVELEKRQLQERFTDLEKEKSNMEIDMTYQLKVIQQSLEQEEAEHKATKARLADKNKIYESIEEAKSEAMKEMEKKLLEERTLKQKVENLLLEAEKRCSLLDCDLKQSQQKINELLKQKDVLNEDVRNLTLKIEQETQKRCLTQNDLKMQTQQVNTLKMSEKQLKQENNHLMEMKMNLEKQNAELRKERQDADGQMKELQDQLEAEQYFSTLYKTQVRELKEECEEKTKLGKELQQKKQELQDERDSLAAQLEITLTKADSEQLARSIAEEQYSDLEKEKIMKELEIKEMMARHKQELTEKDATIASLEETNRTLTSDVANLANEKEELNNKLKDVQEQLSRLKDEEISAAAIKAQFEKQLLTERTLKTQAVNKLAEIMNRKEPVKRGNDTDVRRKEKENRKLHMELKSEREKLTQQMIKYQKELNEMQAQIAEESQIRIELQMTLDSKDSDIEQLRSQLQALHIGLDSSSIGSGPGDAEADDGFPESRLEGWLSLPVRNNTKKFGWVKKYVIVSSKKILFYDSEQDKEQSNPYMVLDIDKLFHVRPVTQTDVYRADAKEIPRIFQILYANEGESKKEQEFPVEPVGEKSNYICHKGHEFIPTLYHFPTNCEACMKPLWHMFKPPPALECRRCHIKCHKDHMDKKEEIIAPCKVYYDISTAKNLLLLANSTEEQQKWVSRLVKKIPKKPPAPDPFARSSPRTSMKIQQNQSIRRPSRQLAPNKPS

Compound	IC50 [nM]
COC(=O)c1ccc(N(C)C(C(=O)c2ccccc2)c2ccccc2)cc1 (stereo not drawn)	9.01
COCSC(C)CCSCCO (stereo not drawn)	8.4
CCC(O)CNCc1ccnc2ccc(OC)cc12 (stereo not drawn)	8.02
